Legend:
[1] = Metal desorption from pre-loaded GAC in phosphate or citrate buffer solutions at various pH; type: physicochemical
Method: Phosphate or citrate buffering was used to stabilize pH. Points represent the mean of three observations. Error bars indicate standard deviation.
The metal leaching behavior of the GAC impregnated with Cd^2+ or CrO4^2− ions was determined using phosphate or citrate buffer solutions as described herein. […] This is consistent with studies that found cadmium and other metal cations sorbed to activated carbon most strongly at high pH. […] Also, chromate anions have increased sorption to activated carbon at low pH.
By delivering toxicity in the pH range where this transition between community types occurs, the metal-carbon formulations can prevent acidophile colonization. […] Cadmium cation sorption is more ideal for this corrosion prevention application because metal remains in solution as corrosion progresses to pH values below 6.

[2] = system: Halothiobacillus neapolitanus strains; conditions: cited from earlier work
[3] = Leaching of metal from metal-carbon formulation in liquid media (total metal concentration); type: physicochemical
[4] = Cadmium and chromium in corrosion product and pore water of treated field specimens (ICP-MS), pore water pH; type: physicochemical; conditions: after 70 days, Experiment B
Method: Metal concentrations measured by inductively coupled plasma mass spectrometry (ICP-MS) of acid extracted samples.
Cadmium and chromium were measured in dry sieved corrosion products for the treated samples in Experiment B, and are presented both as ng/g dry sieved fines as well as μM in pore water (FIG. 9). These metals are typically present in Portland Cement at average concentrations of 0.34 ng/g Cd and 76 ng/g Cr. […] Aside from one chromium outlier at 71 days, metal concentrations in the dry fine material after 50 days stayed relatively constant between 400 and 800 ng/g.
Metal concentrations—micromolar levels of both cadmium and chomium—in pore water are also shown; these levels represent the concentrations which drive metal diffusion into bacterial cells on the corrosion front. Pore water concentrations increased to several μM after 70 days, and subsequently receded to less than 0.2 μM by the end of the experiment at 126 days (FIG. 9). This decrease is in pore water concentrations is due to a marked increase in surface moisture as the experiment progressed (up to 23% moisture), which diluted the released metal ions.

[5] = between pH 1 and pH 6; cited from earlier work
[6] = GAC impregnated with metal ions, phosphate or citrate buffer

Structure (SMILES) | Sorption to GAC as function of pH [1, 6] | pH below which ions can resorb onto the carbon ([1]; pre-loaded GAC, buffered solutions) | Effect on thiosulfate oxidation [2] | Total metal concentration based on leaching experiments in media ([3]; pH 3) | Total metal concentration based on leaching experiments in media ([3]; pH 5) | Metal concentration in pore water [4] | pH below which desorption from GAC increases [1, 6] | Factor of increase of adsorption to activated carbon [5]
[O]=[Cr](=[O])([O-])[O-] [CrO4^−2] | sorb strongly at pH above 7 and pH below 5 | < 4 | inhibit | – | – | – | – | –
[Cr] [chromium] | – | – | – | 0.00456 mM | 0.000822 mM | several | – | –
[Cd] [cadmium] | – | – | – | 0.89 mM | 0.89 mM | several | below 6 | 10

Source: patent US9924723B2 (THE REGENTS OF THE UNIVERSITY OF COLORADO, A BODY CORPORATE, priority 2013, dated 2018)
